Data set [1] relates to Live Jurkat cells. In words: DNA staining of live cells, 15 minute incubation (Example 46). It is filed as cell-based, human. The conditions noted are these: 2.5, 5, 10 μM, 37° C., 15 min; 488 and 633 nm lasers, 695/40. As for the experimental part: Compound 9 is diluted as a 5 mM concentration in DMSO. Live Jurkat cells are suspended at 5×10^5 cells/ml in RPMI media with 10% Fetal Bovine Serum (FBS). Compound 9 was is added to each of one mL cell suspensions at concentrations 2.5 μM, 5 μM, 10 μM and then incubated at 37° C. for 15 minutes while protected from light. Cells are run through the Becton Dickinson (BD) LSRII Flow Cytometer. Forward Scatter (FS) vs Side Scatter (SS) dual parameter plot is used to gate main cell population. Fluorescence is collected using two lasers: the 488 nm excitation laser with 695/40 bandpass emission filter, and using the 633 nm excitation laser with 695/40 bandpass emission filter. Collection of 10,000 events gated on the main population of cells was performed using a flow rate of ˜200 events/second. […] A typical DNA cell cycle histogram was generated, showing G0/G1 phase, S phase, and G2/M phase, as obtained on the live cell gate, with all concentrations of the compound.

For data set [2], the system named is Live Jurkat cells. In words: Comparison of DNA stains on cell viability (Example 44). The conditions noted are these: human, 72 h, 5 μM. It is filed as cell-based. As to the method: Live Jurkat cells are suspended at 5×10^5 cells/ml in complete RPMI media with 10% FBS. Four aliquots of 10 ml each of the cell suspension are made. A final concentration of 5 μM Hoechst 33342 (Invitrogen Corporation) is added to one aliquot, a final concentration of 5 μM DRAQ5 (Biostatus Limited, UK) is added to one aliquot, a final concentration of 5 μM Compound 9 is added to one aliquot, and one aliquot remains untreated as a control. All four aliquots are placed in a 37° C. waterbath for 30 minutes in protected from light. After the incubation, all cell suspensions are centrifuged, the cells are pelleted and the supernatant discarded. To each aliquot, 5 ml media is added. Four culture flasks are prepared by adding 35 ml media to each. One 5 ml aliquot of cells is added to one flask for each on the four cell suspensions aliquots. The flasks are placed in a 37° C. incubator with 5% CO2 in the dark for 72 hours. Each flask of cells is then gently mixed and cell suspension is removed for testing. The cell concentration and image is performed using the Cellometer instrument from Nexcelom. Percentage and absolute cell counts of live and dead cells for each treatment are determined using the LIVE/DEAD Viability/Cytotoxicity Kit (Invitrogen Corporation, Carlsbad, Calif.) with COUNTBRIGHT Absolute Counting Beads (Invitrogen Corporation). This involves adding one ml cell suspension to a 12×75 mm test tube and adding 2 μl of a 50 μM calcein AM solution to identify living cells and 4 μl of a 2 mM ethidium homodimer-1 solution to identify dead cells. The cell suspension is mixed and incubated for 20 minutes at room temperature protected from light. After the end of the incubation, 50 μl of well mixed COUNTBRIGHT absolute counting beads are added to each test tube. Each sample is run through the Becton Dickinson (BD) LSRII Flow Cytometer. Forward Scatter (FS) versus Side Scatter (SS) dual parameter plot is used to gate main cell population, and a separate gate is made around the bead population. Fluorescence is collected using 488 nm excitation laser with 530/30 bandpass and 610/20 bandpass emission filters. Markers on a dual parameter plot of calcein fluorescence versus ethidium homodimer-1 fluorescence is used to obtain percent of cells which are living and dead, as well as number of cell events recorded. By using the COUNTBRIGHT absolute counting beads assay, the absolute number of living and dead cells is calculated by using the equation: A/B×C/D=concentration of cells/μL (A=number of cell events, B=number of bead events, C=assigned bead count, D=volume of the sample in μl).

The subject of data set [3] is Jurkat cells fixed in 70% cold ethanol. In words: Staining of fixed cells, DNA content cell cycle by flow cytometry (Example 41). The format is cell-based, human. The conditions noted are these: 5 μM, PBS, room temperature 30 min. As for the experimental part: Live Jurkat cells are fixed 70% cold ethanol and stored at −20° C. for one month. The cells are the washed in phosphate buffered saline (PBS) and resuspended in PBS at 5×10^5 cells/ml. Cells are labeled with a 5 μM solution of a compound according to the invention (e.g., Compound 9 or a salt thereof) at room temperature for 30 minutes and then run through two flow cytometers: A BD LSRII using 488 nm excitation and 695/40 nm emission and an Accuri C6 using 488 nm excitation and >670 nm emission, collecting 10,000 events at low flow rate. Markers are placed on the G0G1 and G2M peaks to look at % CV of the G0G1 peak and the ratio of G2M/G0G1.
For orientation: In flow cytometry, cells or beads pass a laser one at a time.

In data set [4] the test system is Live Jurkat cells. As to the kind of experiment: DNA staining of live cells (diluted samples), cell cycle analysis by flow cytometry (Example 38). The format is cell-based, human. As for the experimental part: Aliquots of a compound of the invention (e.g., Compound 9 or a salt thereof) are diluted to a concentration of 5 mM in de-ionized water (DI) or in DMSO. Live Jurkat cells are suspended at 5×10^5 cells/ml in each RPMI media with 10% FBS. Compound from each solution (DI and DMSO) is added to each of one mL cell suspensions at a concentration 5 μM and then incubated at 37° C. for 30 minutes while protected from light. Cells are run through a Becton Dickinson (BD) LSRII Flow Cytometer. Forward Scatter (FS) versus Side Scatter (SS) dual parameter plot is used to gate main cell population. Fluorescence is collected using two lasers: the 488 nm excitation laser with 695/40, and 780/60 bandpass emission filter, and using the 633 nm excitation laser with 780/60, 710/50, and 660/20 bandpass emission filters. Fluorescence is also collected with the 488 nm laser and the 530/30 and 575/26 bandpass emission filters to observe for any fluorescence spillover in these detectors. Collection of at least 10,000 events is performed at a flow rate of ˜200 events/second. The data is analyzed to evaluate the ratio of G2/G1 and the % CV of G1 phase, as described herein. Compound 9 was evaluated using the described procedures and was effective as a DNA stain for use in DNA cell cycle analysis. The compound was excited by both lasers with emission in the far red and near-IR regions of the spectrum. […] Table 2 summarizes data for live Jurkat cells suspended in RPMI media+10% FBS treated with 5 μM Compound 9 (as a 5 mM DMSO or DI solution).

[5] abbreviates: Accuri C6, 488 nm excitation, >670 nm.
Setting [6] is: BD LSRII, 488 nm excitation, 695/40.

SMILES strings stand for the structures.

For the compound `CN(C)CCNC(=O)CNc1ccc(O)c2c1C(=O)c1c(O)ccc(N)c1C2=O` [Compound 9], the “DNA content cell cycle staining” value in the data set on Live Jurkat cells [1] is “demonstrated staining for DNA content cell cycle”. For the same compound, in the data set on Live Jurkat cells [2], the “% Dead Cells” value turned out to be 26.4%, the “% Living Cells” value is given as 71.2%, the “Cell Count (Cellometer)” value was 2.54 × 10^5 cells/mL and the “Cell Count (Flow Cytommetry)” value was 0.7 × 10^5 cells/mL. In data set [3] (setting [5]), the “% CV of the G0G1 peak” value amounted to 5.9% and the “ratio of G2M/G0G1” value stood at 1.85. Moreover, in data set [3] (setting [6]), the “% CV of the G0G1 peak” value was 6.0% and the “ratio of G2M/G0G1” value came to 1.83. For the same compound, the G2/G1 ratio in the data set with Live Jurkat cells [4] (5 μM from 5 mM DI solution, 488 + 695/40) is 1.89. Moreover, the G2/G1 ratio in the data set on Live Jurkat cells [4] (5 μM from 5 mM DI solution, 633 + 710/50) is recorded as 1.85. In addition, the G2/G1 ratio in the data set with Live Jurkat cells [4] (5 μM from 5 mM DMSO solution, 488 + 695/40) is listed as 1.88. Further, in the data set on Live Jurkat cells [4] (5 μM from 5 mM DMSO solution, 633 + 710/50), the G2/G1 ratio is listed as 1.85. In addition, in the data set with Live Jurkat cells [4] (5 μM, all samples and conditions, MODFIT), the “% CV of G1-phase” value is reported as less than 8%.

For the origin of these results see US9709557B2, “Anthraquinone based near IR emitting compounds and uses thereof” (LIFE TECHNOLOGIES CORPORATION, priority 2008, dated 2017).
